According to patent EP1243271A1, “NASAL DROPS CONTAINING FUSED PYRIDAZINE DERIVATIVES” (Takeda Chemical Industries, Ltd., priority 1999, dated 2001):
Counter-ions that a name gives are not always drawn.

Assays:
Guinea Pig Eosinophils = test: Suppression of LTB4-induced chemotactic reaction of guinea pig eosinophils; assay type: cell-based, guinea pigs; conditions: Cavia porcellus, Eosinophil, test drug 1 × 10^-5 M, LTB4 10^-8 M, read-out: Suppression Rate (%)
Method: To male Hartley guinea pigs, 2 ml of equine serum (Bio-Whittaker, Inc.) was intraperitoneally administered once weekly for 8 consecutive weeks. At 48 hours after final administration, 75 ml of physiological saline was intraperitoneally injected, after which the recovered solution was centrifuged at 400 × g for 5 minutes. The resulting sediment was suspended in 5 ml of Percoll solution (density d=1.07) and layered on top of the discontinuous density layer of Percoll solution (density d=1.112, 5 ml; d=1.095, 10 ml; d=1.090, 10 ml; d=1.085, 5 ml), followed by centrifugation at 1,000 × g for 25 minutes (20°C). The cell layer formed at the interface between density d= 1.112 and density d=1.095 was collected. Erythrocytes present in the collected cell sediment were removed by hypotonic treatment (suspended in water for […]).
The cell sediment was washed 3 times with Hanks' solution containing 10 mM Hepes (Dojin Kagaku) (Hanks-Hepes) and suspended in a Hanks-Hepes solution containing 2% human serum albumin (Wako Pure Chemical Industry or Sigma) (Hanks-Hepes-HSA) to a concentration of 5.56×10^6 cells/ml. Eosinophil purity was 90%, viability was over 98%.
To a 24-well culture dish, which serves as a lower chamber, 600 µl of Hanks-Hepes-HSA solution containing LTB4 (final concentration 10^-8 M, Cascade Biochemical Ltd.), was transferred, followed by incubation at 37°C for 30 minutes in a carbon dioxide incubator. Separately, 200 µl of eosinophil suspension (5×10^6 cells/ml), previously incubated at 37°C for 15 minutes, was added to Chemotaxicell (polycarbonate membrane, pore size 3 µm, thickness 10 µm), which serves as an upper chamber, after the upper chamber was attached to the 24-well culture dish. After 2 hours of reaction in the carbon dioxide incubator, the Chemotaxicell was removed; 60 µl of 2% (w/v) EDTA solution in physiological saline was added to the liquid in the lower chamber. After ice-cooling, the cells migrating into the inner solution of the lower chamber were counted using a blood cell counter [Coulter Counter (trade name)]. The test drug, dissolved in N,N-dimethylformamide (DMF), was added to both the upper and lower chambers to a final concentration of 10^-5 M. Equation 2 Chemotactic reaction suppression rate = [1-(number of migrating cells in the presence of drug/number of migrating cells in the absence of drug)] × 100 [formula] suppression rates of LTB4 -induced chemotactic reaction by test drug (1 × 10^-5 M concentration) were calculated.

Male Hartley guinea pigs = test: Effect on histamine-induced increases in microvascular permeability in skin in guinea pigs; assay type: in vivo; conditions: Cavia porcellus; 3 mg/kg oral administration 1 hour before histamine; guinea pig skin
Method: Male Hartley guinea pigs weighing about 500 g were used. After the dorsal hair was shaved under ether anesthesia, 1 ml of a 2.5% pontamine sky blue solution was injected intravenously, and then 0.1 ml of histamine at 3 µg/ml was injected intradermally into 2 sites (left and right) in the back. Thirty minutes after the injection of histamine, animals were fainted by knocking in the head, decapitated and killed by bleeding, after which the skin of the back was removed. The long and short diameters (mm) of each blue spot were measured and multiplied; the mean product was taken as the vascular permeability index. Test compounds were suspended in a 5% gum arabic solution and orally administered in a volume of 0.2 ml/100 g body weight at 1 hour before histamine administration. Animals in the control group received the same volume of a 5% gum arabic solution. Equation 1 Inhibition (%) of histamine-induced increases in microvascular permeability in skin = 100 × (1-vascular permeability index in the presence of drug/vascular permeability index in control group) [formula]

Structure (SMILES) | inhibition at 10 µM (Guinea Pig Eosinophils) | inhibition in vivo at 3 mg/kg (Male Hartley guinea pigs)
c1ccc(C(OC2CCN(CCCOc3ccc4ncnn4n3)CC2)c2ccccc2)cc1 [Reference Example B2, 6-[3-[4-(diphenylmethoxy)piperidino]propoxy]-[1,2,4]triazolo[1,5-b]pyridazine fumarate] | 54% | –
c1ccc(C(OC2CCN(CCCCNc3ccc4ncnn4n3)CC2)c2ccccc2)cc1 [Reference Example B12, 6-[4-[4-(diphenylmethoxy)piperidino]-butylamino][1,2,4]triazolo[1,5-b]pyridazine] | – | 91%
O=C(CCN1CCC(OC(c2ccccc2)c2ccccc2)CC1)Nc1ccc2ncnn2n1 [Reference Example B18, 3-[4-(diphenylmethoxy)piperidino]-N-([1,2,4]triazolo[1,5-b]pyridazin-6-yl)propionamide] | – | 91%
Cc1nc2ccc(OCCCN3CCC(OC(c4ccccc4)c4ccccc4)CC3)nn2n1 [Reference Example B21, 6-[3-[4-(diphenylmethoxy)piperidino]propoxy]-2-methyl[1,2,4]triazolo[1,5-b]pyridazine] | – | 91%
CC(C)(C)c1nc2ccc(NCCCN3CCC(OC(c4ccccc4)c4ccccc4)CC3)nn2n1 [Reference Example B34, 2-tert-butyl-6-[3-[4-(diphenylmethoxy)-piperidino]propylamino][1,2,4]triazolo[1,5-b]pyridazine fumarate] | 50% | –
c1ccc(C(OC2CCN(CCCCCCNc3ccc4ncnn4n3)CC2)c2ccccc2)cc1 [Reference Example B35, 6-[6-[4-(diphenylmethoxy)piperidino]-hexylamino][1,2,4]triazolo[1,5-b]pyridazine] | 52% | –
COC(=O)c1nc2ccc(NCCCN3CCC(OC(c4ccccc4)c4ccccc4)CC3)nn2n1 [Reference Example B36, methyl 6-[3-[4-(diphenylmethoxy)piperidino]-propylamino][1,2,4]triazolo[1,5-b]pyridazine-2-carboxylate] | 64% | –
c1ccc(C(c2ccccc2)N2CCN(CCCCCCNc3ccc4ncnn4n3)CC2)cc1 [Reference Example B37, 6-[6-[4-(diphenylmethyl)-1-piperazinyl]-hexylamino][1,2,4]triazolo[1,5-b]pyridazine] | – | 92%
COc1cn2nc(OCCCN3CCC(OC(c4ccccc4)c4ccccc4)CC3)ccc2n1 [Reference Example B41, 6-[3-[4-(diphenylmethoxy)piperidino]propoxy]-2-methoxyimidazo[1,2-b]pyridazine] | – | 92%
Cc1cc2ncnn2nc1OCCOCCN1CCN(C(c2ccccc2)c2ccccc2)CC1 [Reference Example B47, 6-[2-[2-[4-(diphenylmethyl)-1-piperazinyl]-ethoxy]ethoxy]-7-methyl[1,2,4]triazolo[1,5-b]pyridazine] | 54% | –
Cc1cc2ncnn2nc1OCCCCCCN1CCN(C(c2ccccc2)c2ccccc2)CC1 [Reference Example B51, 6-[6-[4-(diphenylmethyl)-1-piperazinyl]hexyloxy]-7-methyl[1,2,4]triazolo[1,5-b]pyridazine dihydrochloride] | 80% | –
CC(C)c1cc2ncnn2nc1SCCOCCN1CCN(C(c2ccccc2)c2ccccc2)CC1 [Reference Example B59, 6-[2-[2-[4-(diphenylmethyl)-1-piperazinyl]-ethoxy]ethylthio]-7-isopropyl[1,2,4]triazolo[1,5-b]pyridazine dihydrochloride] | 54% | –
CC(C)c1cc2ncnn2nc1OCCOCCN1CCN(C(c2ccccc2)c2ccccc2)CC1 [Reference Example B61, 6-[2-[2-[4-(diphenylmethyl)-1-piperazinyl]-ethoxy]ethoxy]-7-isopropyl[1,2,4]triazolo[1,5-b]pyridazine] | 50% | –
CC(C)(C)c1cc2ncnn2nc1OCCOCCN1CCN(C(c2ccccc2)c2ccccc2)CC1 [Reference Example B62, 7-tert-butyl-6-[2-[2-[4-(diphenylmethyl)-1-piperazinyl]ethoxy]ethoxy][1,2,4]triazolo[1,5-b]pyridazine dihydrochloride] | 52% | –
